Data published in patent publication US7807663B2, “Therapeutic agents for diabetes” (Ajinomoto Co., Inc., priority 2003, dated 2010).

Legend:
C57BL/KsJ-db/bdJcl mice [1] = assay: Combinational effect with glitazone (pioglitazone) using db/db mice, oral glucose load (Examples 5 and 6); assay type: in vivo; conditions: single oral administration combined with pioglitazone 10 mg/kg/day oral for 10 days, compared with alone groups
Procedure: The oral glucose load experiments are conducted using C57BL/KsJ-db/bdJcl mice in the conditions with or without the oral administeration of pioglitazone (10 mg/kg/day) for 10 days and with or without a single oral administration of the compound (III).
The same experiment is conducted as that of Example 5 except that the compounds of the Compound Nos. 6, 8, 62, 80, 81, 88, 91, 96, 105, 106, 129, 130, 131 and 132 in Tables 1 and 2 are used instead of the compound (III).

KK-Ay mice = assay: Combinational effect with biguanide (metformin) using KK-Ay mice (Example 4); assay type: in vivo; conditions: combined with metformin, compared with alone groups, same experiment as Example 3
Procedure: The compound (III) (30 mg/kg) was orally administered to C57BL/KsJ-db/bdJcl mice (10 week age, male) and soon after that, metformin (100 mg/kg) was orally administered. 60 minutes after administration, the blood was taken from their caudal veins to determine the blood glucose level.
The same experiment is conducted as that of Example 3 except that the compounds of the Compound Nos. 6, 8, 62, 80, 81, 88, 91, 96, 105, 106, 129, 130, 131 and 132 in Tables 1 and 2 are used instead of the compound (III), and KK-Ay mice are used instead of db/bd mice.

adipose cells of rats = assay: Evaluation of the sugar transportation activity (2-[14C(U)]-deoxy-D-glucose incorporation); assay type: cell-based, Wistar rats; conditions: concentration with reinforcing effect of 50% of that of insulin (100 nM) = 100%; rat adipose cells, 30 min pre-culture at 37° C., 5 min uptake
Procedure: 1. Preparation of Adipose Cells of Rats:
After the decapitation and venesection of 6 male Wistar rats (body weight: 150 to 200 g), an incision was made in the abdomen of each rat to extract 6 g in total of epididymal adipose tissues. The tissues were finely cut into 2 mm×2 mm pieces in 6 ml of KRH (Krebs-Ringer Hepes, composition: 130 mM of sodium chloride, 4.7 mM of potassium chloride, 1.2 mM of potassium dihydrogenphosphate, 1.2 mM of magnesium sulfate, 1 mM of calcium chloride and 25 mM of Hepes, pH=7.6) containing 5% of BSA (bovine serum albumin). 24 mg of collagenase (type I) was added thereto and the digestion treatment was conducted for about 40 minutes to obtain about 6 ml of isolated adipose cells. The collagenase was removed by the buffer exchange. 2% BSA/KRH solution was added to the residue for the re-suspension to obtain 45 ml of an adipose cell suspension.
2. Evaluation of the Sugar Transportation Activity:
The sugar transportation activity of the compound (I) of the present invention was evaluated with reference to a method described in a literature [Annual Review of Biochemistry, Vol. 55, p. 1059 (1986)]. In the test, 200 μL of the adipose cell suspension was poured in each polystyrene test tube, 100 μL of the solution of the test substance (by dilution of 10 mg/mL dimethyl sulfoxide solution with KRH) was added thereto, and the obtained mixture was shaken and then cultured at 37° C. for 30 minutes. The sugar transportation activity was evaluated by measuring the quantity of 2-[^14C(U)]-deoxy-D-glucose incorporated per a unit time. Namely, 2-[^14C(U)]-deoxy-D-glucose was added to the adipose cell suspension after the pre-culture (the final concentration: 0.5 μCi/sample). 5 minutes after, cytochalasin B (final concentration: 10 μM) was added to the mixture to terminate the sugar transportation. After forming a dinonyl phthalate layer, the obtained mixture was centrifuged to separate the adipose cells from the buffer. The quantity of 2-[^14C(U)]-deoxy-D-glucose contained in the adipose cell layer was determined with a liquid scintillation counter to determine the quantity of the incorporated sugar. In this evaluation system, when insulin (100 nM) having the effect of reinforcing the sugar transportation was used, the effect was about 7 times as high as that obtained in the insulin-free control group.
The results of the evaluation of the sugar transportation activity obtained by using 100 μg/mL of the compound (I) of the present invention are shown in Table 3. The sugar transportation activity in Table 3 was evaluated on the basis of the reinforcing effect of insulin (100 nM). The sugar transportation activity A in Table 3 was determined in terms of the concentration (EC50: μg/mL) of a test compound, having a reinforcing effect corresponding to 50% on the basis of the reinforcing effect of insulin (100 nM) having a reinforcing effect of 100%.
The symbols in Table 3 are as follows: • No: Compound No. in Tables 1 and 2, and • A: sugar transportation activity.

GK rats = assay: Combinational effect with insulin secretagogue (gliclazide) using GK rats (Example 2); assay type: in vivo; conditions: combined with gliclazide, compared with alone groups, same experiment as Example 1
Procedure: The compound (II) (100 mg/kg) was orally administered to C57BL/6NCrj mice (11 week age, male) and soon after that, gliclazide (3 mg/kg) was orally administered. After administration, the blood was taken from their caudal veins over time to determine the blood glucose level. Area under the curve of blood glucose level changes until 70 minutes after the administration was set as an index and variations from a control group (Vehicle administered group) were compared.
The same experiment is conducted as that of Example 1 except that the compounds of the Compound Nos. 6, 8, 62, 80, 81, 88, 91, […], 105, 106, 129, 130, 131 and 132 in Tables 1 and 2 are used instead of the compound (II), and GK rats are used instead of normal mice.

C57BL/KsJ-db/bdJcl mice [2] = assay: Combinational effect with insulin using db/db mice (Examples 7 and 8); assay type: in vivo; conditions: combined with insulin 0.2 U/kg, compared with alone groups, same experiment as Example 3
Procedure: The compound (III) (30 mg/kg) was orally administered to C57BL/KsJ-db/bdJcl mice (10 week age, male) and soon after that, metformin (100 mg/kg) was orally administered. 60 minutes after administration, the blood was taken from their caudal veins to determine the blood glucose level. The same experiment is conducted as that of Example 3 except that insulin (0.2 U/kg) is used instead of metformin. […] The same experiment is conducted as that of Example 7 except that the compounds of the Compound Nos. 6, 8, 62, 80, 81, 88, 91, 96, 105, 106, 129, 130, 131 and 132 in Tables 1 and 2 are used instead of the compound (III).

Row | Structure (SMILES) | A: sugar transportation activity (EC50) (adipose cells of rats) [µg/mL] | other results
1 | CCC(=O)N1[C@@H]2CCCC[C@H]2NC2=C(C(=O)NC2)[C@H]1c1ccccc1 [Compound 130] | 1.5 | hypoglycemic action (oral glucose load) (C57BL/KsJ-db/bdJcl mice [1]): remarkable hypoglycemic action; hypoglycemic action (blood glucose level) (KK-Ay mice): remarkable hypoglycemic action; hypoglycemic action (blood glucose level) (GK rats): remarkable hypoglycemic action; hypoglycemic action (blood glucose level) (C57BL/KsJ-db/bdJcl mice [2]): remarkable hypoglycemic action
2 | CC(=O)N1[C@@H]2CCCC[C@H]2NC2=C(C(=O)NC2)[C@H]1c1ccccc1 [Compound 129] | – | hypoglycemic action (oral glucose load) (C57BL/KsJ-db/bdJcl mice [1]): remarkable hypoglycemic action; hypoglycemic action (blood glucose level) (KK-Ay mice): remarkable hypoglycemic action; hypoglycemic action (blood glucose level) (GK rats): remarkable hypoglycemic action; hypoglycemic action (blood glucose level) (C57BL/KsJ-db/bdJcl mice [2]): remarkable hypoglycemic action
3 | CCCC(=O)N1[C@@H]2CCCC[C@H]2NC2=C(C(=O)NC2)[C@H]1c1ccccc1CC [Compound 93] | 5 | –
4 | COc1cc(Cl)ccc1[C@@H]1C2=C(CNC2=O)N[C@@H]2CCCC[C@H]2N1C(C)=O [Compound 73] | 6 | –
5 | COc1ccccc1[C@@H]1C2=C(CNC2=O)N[C@@H]2CCCC[C@H]2N1C(=O)c1ccccn1 [Compound 33] | 10 | –
6 | CCC(=O)N1[C@@H]2CCCC[C@H]2NC2=C(C(=O)NC2)[C@H]1c1ccccc1OC [Compound 2] | 0.77 | –
7 | Cc1ccccc1[C@@H]1C2=C(CNC2=O)N(C)[C@@H]2CCCC[C@H]2N1C(=O)CO [Compound 92] | 1.5 | –
8 | COc1ccccc1[C@@H]1C2=C(CNC2=O)N[C@@H]2CCCC[C@H]2N1C(=O)OCc1ccccc1 [Compound 39] | 6 | –
9 | COc1ccccc1[C@@H]1C2=C(CNC2=O)N[C@@H]2CCCC[C@H]2N1C(=O)c1ccncc1 [Compound 35] | 18 | –
10 | CCOCC(=O)N1[C@@H]2CCCC[C@H]2NC2=C(C(=O)NC2)[C@H]1c1ccccc1Br [Compound 112] | 8.6 | –
11 | CC=CC(=O)N1[C@@H]2CCCC[C@H]2NC2=C(C(=O)NC2)[C@H]1c1ccccc1OC [Compound 16] | 1.1 | –
12 | COc1ccccc1[C@@H]1C2=C(CNC2=O)N[C@@H]2CCCC[C@H]2N1C(=O)C(F)(F)F [Compound 5] | 4.5 | –
13 | CCC(=O)N1[C@@H]2CCCC[C@H]2NC2=C(C(=O)NC2)[C@H]1c1ccccc1Cl [Compound 116] | 3 | –
14 | COc1cccc([C@@H]2C3=C(CNC3=O)N[C@@H]3CCCC[C@H]3N2C(C)=O)c1OC [Compound 77] | 12 | –
15 | CCC(=O)N1[C@@H]2CCCC[C@H]2NC2=C(C(=O)NC2)[C@H]1c1ccccc1C [Compound 83] | 2 | –
16 | COc1ccccc1CCC(=O)N1[C@@H]2CCCC[C@H]2NC2=C(C(=O)NC2)[C@H]1c1ccccc1OC [Compound 26] | 4 | –

Row | Structure (SMILES) | A: sugar transportation activity (EC50) (adipose cells of rats) [µg/mL] | other results
17 | CCNC(=O)N1[C@@H]2CCCC[C@H]2NC2=C(C(=O)NC2)[C@H]1c1ccccc1OCC [Compound 56] | 12 | –
18 | CCOCC(=O)N1[C@@H]2CCCC[C@H]2NC2=C(C(=O)NC2)[C@H]1c1ccccc1Cl [Compound 120] | 10.7 | –
19 | COc1ccc([C@@H]2C3=C(CNC3=O)N[C@@H]3CCCC[C@H]3N2C(C)=O)c(OC)c1 [Compound 78] | 10 | –
20 | COc1ccccc1[C@@H]1C2=C(CNC2=O)N[C@@H]2CCCC[C@H]2N1C(=O)CCCO [Compound 19] | 4.8 | –
21 | CCOCC(=O)N1[C@@H]2CCCC[C@H]2NC2=C(C(=O)NC2)[C@H]1c1ccccc1O [Compound 65] | 1 | –
22 | COc1ccccc1[C@@H]1C2=C(CNC2=O)N[C@@H]2CCCC[C@H]2N1C(=O)COc1ccccc1 [Compound 12] | 4.6 | –
23 | CCOCC(=O)N1[C@@H]2CCCC[C@H]2NC2=C(C(=O)NC2)[C@H]1c1ccccc1OCC [Compound 53] | 4 | –
24 | COc1ccccc1[C@@H]1C2=C(CNC2=O)N[C@@H]2CCCC[C@H]2N1C(C)=O [Compound 1] | 1.3 | –
25 | COCC(=O)N1[C@@H]2CCCC[C@H]2NC2=C(C(=O)NC2)[C@H]1c1ccccc1Br [Compound 113] | 6 | –
26 | CCOCC(=O)N1[C@@H]2CCCC[C@H]2NC2=C(C(=O)NC2)[C@H]1c1ccccc1C [Compound 84] | 4 | –
27 | COCC(=O)N1[C@@H]2CCCC[C@H]2NC2=C(C(=O)NC2)[C@H]1c1ccccc1Cl [Compound 119] | 5 | –
28 | COc1cc(F)ccc1[C@@H]1C2=C(CNC2=O)N[C@@H]2CCCC[C@H]2N1C(C)=O [Compound 72] | 8 | –
29 | COC(=O)CC(=O)N1[C@@H]2CCCC[C@H]2NC2=C(C(=O)NC2)[C@H]1c1ccccc1Cl [Compound 121] | 2 | –
30 | Cc1ccccc1[C@@H]1C2=C(CNC2=O)N[C@@H]2CCCC[C@H]2N1C(=O)CO [Compound 86] | 2.5 | –
31 | COc1ccc([C@@H]2C3=C(CNC3=O)N[C@@H]3CCCC[C@H]3N2C(C)=O)cc1 [Compound 138] | 4.4 | –
